Data set [1] concerns male C57BL6 mice. Description: Mouse head-twitch response (HTR). It is filed as in vivo. Particulars: mice pretreated with M100907 prior to compound. As for the experimental part: Male, C57BL/6J mice (body weight range 20-30 g) were dosed with the appropriate dose of test article, and following a 1-minute pre-treatment time, placed in individual observation chambers. Animals were visually assessed for the incidence head twitches continuously over a 1 hr period. Head twitches were defined as a rapid jerk of the head which was not elicited by an external tactile stimulus (Come and Pickering, Psychopharmacologia, 1967, 11(1): 65-78). Each head twitch was individually counted by a trained observer, and the data expressed as the mean±SEM of 6-10 mice per group. Mice were used in a single experiment only.
Dose response (0.3-3 mg/kg SC) 5-HT2A signs of WDS/BMC measured over 1h. Also locomotor activity and other 5-HT receptor signs measured. For example, the effect on various doses of exemplary compound of Formula I-B, I-B-1, on head-twitch response (HTR) in male C57BL6 mice was studied. The mice were treated with exemplary compound I-B-1 (0.03-10 mg/kg) by SC route in a vehicle of 10% DMSO in Saline (2 drops HCl (0.1M)+1 drop Tween 80 were added), and the total number of head twitches were recorded over a one hour period. Data is expressed as mean±SEM (see, FIG. 1).

For data set [2], the target named is T1, human 5-HT2A (Homo sapiens, UniProt P28223). The data set is described as follows: Radioligand binding assay on human 5-HT2A receptor ([3H]-ketanserin). As for the experimental part:
i. The assay buffer was prepared following the table below;
iii. Prepared (v/v) DMSO as follows: a. […] The plates were sealed and incubated at 4° C. for 3 hrs;
iv. Preparation of assay plates: a.
vi. The plates were sealed and incubated at 27° C. for 90 min.

The nature of data set [3]: Liver microsomes stability with NADPH, mouse. How it is done: (§1) The objective of this study was to estimate in vitro metabolic stability of representative compounds of the application in pooled human and male mouse liver microsomes. The concentrations of parent compounds in reaction systems were evaluated by LC-MS/MS for estimating the stability in pooled human and male mouse liver microsomes. The in vitro intrinsic clearances of test compounds were determined as well.
(§2) A master solution in the “Incubation Plate” containing phosphate buffer, ultra-pure H2O, MgCl2 solution and liver microsomes was made according to Table 3. The mixture was pre-warmed at 37° C. water bath for 5 minutes.
(§3) 40 μL of 10 mM NADPH solution was added to each well. The final concentration of NADPH was 1 mM. The negative control samples were prepared by replacing NADPH with 40 μL of ultra-pure H2O. Samples were prepared in duplicate. Negative controls were prepared in singlet.
(§4) The reaction was started with the addition of 4 μL of 200 μM test compounds or control compounds to each master solution to get the final concentration of 2 μM. This study was performed in duplicate.
(§5) Aliquots of 50 μL were taken from the reaction solution at 0, 15, 30, 45 and 60 minutes. The reaction solutions were stopped by the addition of 4 volumes of cold methanol with IS (100 nM alprazolam, 200 nM imipramine, 200 nM labetalol and 2 μM ketoprofen). Samples were centrifuged at 3,220 g for 40 minutes. Aliquot of 90 μL of the supernatant was mixed with 90 μL of ultra-pure H2O and then was used for LC-MS/MS analysis.
(§6) LC/MS analysis was performed for all samples from this study using a Shimadzu liquid chromatograph separation system equipped with degasser DGU-20A5R; solvent delivery unit LC-30AD; system controller SIL-30AC; column oven CTO-30A; CTC Analytics HTC PAL System; Mass spectrometric analysis was performed using an Triple Quad™ 5500 instrument.
(§7) All calculations were carried out using Microsoft Excel. Peak area ratios of test compound to internal standard (listed in the below table) were determined from extracted ion chromatograms.
(§8) All calculations were carried out using Microsoft Excel. Peak areas were determined from extracted ion chromatograms. The slope value, k, was determined by linear regression of the natural logarithm of the remaining percentage of the parent drug vs. incubation time curve.
(§9) The in vitro half-life (in vitro t1/2) was determined from the slope value:
(§10) Conversion of the in vitro t1/2 (min) into the in vitro intrinsic clearance (in vitro CLint, in μL/min/mg proteins) was done using the following equation (mean of duplicate determinations): […]
A general note: Liver microsomes are a subcellular fraction often used to study metabolism.

Data set [4] has as its target T2, human 5-HT2A (h5-HT2A) receptor (Homo sapiens, UniProt P28223).
T2 construct: expressed in transfected cells; kept under G418 and hygromycin B selection
The data set is described as follows: FLIPR assay, human 5-HT2A receptor under agonist mode. It is filed as cell-based. How it is done: I. Assessment of the Activated Effect of Compounds of Formula I-B Targeting on Human 5-HT2A (h5-HT2A) Receptor Under Agonist Mode:
1. The cells were cultured in cell culture medium (DMEM containing 10% FBS, 1× penicillin-streptomycin 300 μg/ml G418 and 100 μg/ml hygromycin B) at 37° C., 5% (v/v) CO2.
2. One day before the assays, the cells were detached using TrypLE™ Express and count cells using cell counter.
3. 20000 cells/well were seeded in 30 μl/well culture medium to a 384-well cell plate and incubated the cells overnight at 37° C., 5% (v/v) CO2.
4. On the assay day, 2×dye solution was prepared following the manual of the FLIPR® Calcium 6 Assay Kit: i. The dye was diluted with assay buffer (20 mM HEPES in 1×HBSS, PH7.4); ii. probenecid was added to the final concentration of 5 mM; iii. Vortexed vigorously for 1-2 minutes.
5. Medium was removed from cell plate by flicking the cell plate on towel papers.
7. The cell plate was placed on plate shaker, the plate agitated at 600 rpm for 2 minutes. The plate was incubated at 37° C. for 2 hours followed by additional 15-minute incubation at 25° C.
8. 3×compound was prepared in assay buffer: a. Reference compounds were diluted to required concentration with DMSO. The compounds were added to a 384-well compound plate; b. Serial dilutions were performed; c. 10 mM test compounds were added to the compound plate, 3-fold serial dilutions were performed. […] 20 μl/well assay buffer was added to the compound plate; f.
9. The cell plate, compound plate and tips were placed into FLIPR, 10 μl of 3× compound was transferred to the cell plate per well with FLIPR.
i. The normalized fluorescence reading (RFU) was calculated as shown follow, while Fmax and Fmin stand for maximum and minimum of calcium signal during defined time window: RFU=Fmax−Fmin
ii. The percentage activation was calculated by using following equation: […]
iii. EC50 was calculated by fitting % activation against log of compound concentrations with Hill equation using Xlfit.

The conditions of data set [5]: rapid first-pass metabolism by monoamine oxidase; cited from earlier work.
Data set [6] deals with T1, human 5-HT2A. Particulars: read-out: binding affinity 5-HT2A; literature value; cited from earlier work.
A short description of data set [7]: Liver microsomes stability with NADPH, human. To be noted: human liver microsomes, with NADPH, 2 μM. How it is done:
as §1, §2, §3, §4, §5, §6, §7, §8, §9, §10

Data set [8] in a line: Liver microsomes stability with NADPH, rat.

T1 sequence (P28223 whole entry): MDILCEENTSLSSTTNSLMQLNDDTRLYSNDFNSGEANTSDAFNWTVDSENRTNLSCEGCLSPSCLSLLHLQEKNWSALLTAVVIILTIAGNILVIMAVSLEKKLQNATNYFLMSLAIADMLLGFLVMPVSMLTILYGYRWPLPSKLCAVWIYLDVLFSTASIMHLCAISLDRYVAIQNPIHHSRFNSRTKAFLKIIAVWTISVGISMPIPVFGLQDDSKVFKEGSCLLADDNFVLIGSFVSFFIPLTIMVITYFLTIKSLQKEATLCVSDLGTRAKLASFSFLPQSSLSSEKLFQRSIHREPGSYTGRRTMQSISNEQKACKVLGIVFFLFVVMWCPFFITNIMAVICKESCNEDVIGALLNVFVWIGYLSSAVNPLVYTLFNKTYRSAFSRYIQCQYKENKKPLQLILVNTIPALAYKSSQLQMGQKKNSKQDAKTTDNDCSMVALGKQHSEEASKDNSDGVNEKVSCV
T2 sequence (P28223 whole entry): as above

On to `COc1cccc([C@H](O)C2CCN(CCc3ccc(F)cc3)CC2)c1OC` [Compound M100907], for which the “effect of pretreatment with 5-HT2AR antagonist on HTR induced by compounds of Formula I-B” value in data set [1] is listed as “completely blocked”.

Take `CN(C)CCc1c[nH]c2ccccc12` [DMT, N,N-dimethyltryptamine, reference compound]: in data set [2], the IC50 lay within 0.5 to 5 µM. Further, in data set [3] (male, mouse, microsomes), the half-life at 2 μM was 50.5 min and the microsomal CLint at 2 μM was 27.4 µL/min/mg. Moreover, the “Remaining Percentage (%) after 60 min Mouse” value in data set [3] (mouse liver microsomes, with NADPH, 2 μM) amounted to 65.90%. Moreover, the EC50 in data set [4] lay in the range of 0.1 to 1 µM. Also, the oral activity entry in data set [5] is recorded as “not orally active”. Also, the Ki in data set [6] was 0.000237 µM. Also, in data set [7], the “Remaining Percentage (%) after 60 min Human” value is on record as 0.72%. Also, in data set [8] (rat liver microsomes, with NADPH, 2 μM), the “Remaining Percentage (%) after 60 min Rat” value was determined as 17.29%. In data set [8] (rat, microsomes), this compound had a half-life at 2 μM of 22.7 min and a microsomal CLint at 2 μM of 61 µL/min/mg.

A word on the IC50: it is the midpoint of a concentration-inhibition curve. A higher IC50 goes with weaker potency in that assay. The term half-life denotes the time needed for the level to fall by half in the phase considered. A low value points to fast loss. The term microsomal CLint denotes the capacity of the preparation to metabolise the compound, expressed as a volume cleared per time. A lower microsomal CLint goes with greater metabolic stability. The term EC50 denotes the concentration at which the effect is half-maximal. The low end stands for higher potency in that assay, the high end for lower potency in that assay.

These data come from patent US20240166630A1, “INDOLE DERIVATIVES AS SEROTONERGIC AGENTS USEFUL FOR THE TREATMENT OF DISORDERS RELATED THERETO” (Mindset Pharma Inc., priority 2021, published 2024).
